# According to patent US20220054494A1, “METHODS FOR TREATING BLADDER AND URETHRA DYSFUNCTION AND DISEASE” (University of Pittsburgh - Of the Commonwealth System of …, priority 2019, published 2022):
# Entries after “also recorded” stand apart in the source; their conditions may differ.
# Legend:
# Type in all cases: in vivo, rat
# bladder smooth muscle = assay: Transmission electron microscopy of bladder smooth muscle
# Excerpt: Transmission electron microscopy (TEM): The other half of each urinary bladder from each group (young, aged, and aged+treatment) were fixed in cold 2.5% glutaraldehyde in 0.01 M PBS. The specimens were rinsed in PBS, post-fixed in 1% osmium tetroxide with 1% potassium ferricyanide, rinsed in PBS, dehydrated through a graded series of ethanol and propylene oxide, and embedded in POLY/BED® 812 (Luft formulations). Semi-thin (300 nm) sections were cut on a LEICA® Reichart Ultracut, stained with 0.5% toluidine blue in 1% sodium borate and examined under the light microscope. Ultrathin sections (65 nm) were stained with uranyl acetate and Reynold's lead citrate and examined on JEOL 1400 transmission electron microscope with a side mount AMT 2k digital camera (Advanced Microscopy Techniques, Danvers, Mass.).
# (§1) Transmission electron microscopy (TEM): The other half of each urinary bladder, proximal urethra, or external urethral sphincter from each group (young, aged, aged+8-AG treatment) was fixed in cold 2.5% glutaraldehyde in 0.01 M PBS. The specimens were rinsed in PBS, post-fixed in 1% osmium tetroxide with 1% potassium ferricyanide, rinsed in PBS, dehydrated through a graded series of ethanol and propylene oxide solutions, and embedded in POLY/BED® 812 (Luft formulations). Semi-thin (300 nm) sections were cut on a LEICA® Reichart Ultracut, stained with 0.5% Toluidine Blue in 1% sodium borate and examined under the light microscope. Ultrathin sections (65 nm) were stained with uranyl acetate as well as Reynold's lead citrate and examined on a JEOL 1400 transmission electron microscope with a side mount AMT 2k digital camera (Advanced Microscopy Techniques, Danvers, Mass.).
# as §1, with “Half” for “The other half”, “bladder” for “bladder, proximal urethra, or external urethral sphincter”, “borate,” for “borate”, “and” for “as well as”
# IL-1beta = assay: RT-qPCR of bladder IL-1beta mRNA in CYP cystitis model; conditions: CYP (75 mg/kg i.p.) female Sprague Dawley rats; oral 8-AG 5 mg/kg/day starting one week prior to CYP
# Procedure: (§2) Animals: Female Sprague Dawley rats were employed in this example (Charles River; Wilmington, Mass.). Three groups of animals were included. Group 1 received an i.p. injection of saline and was used as a control; groups 2 and 3 received an i.p. injection of cyclophosphamide (CYP, SIGMA-ALDRICH®, St Louis, Mo., day 0, 3, 6, sacrifice day 8, 75 mg/kg, i.p.) with group 3 treated with oral 8-AG (5 mg/kg/day; starting one week prior to CYP). CYP induced bladder inflammation and is a well-established pre-clinical model for BPS/IC.
# RT-qPCR: Total RNA was isolated from bladders using TRIZOL® Reagent (THERMO FISHER SCIENTIFIC®; Waltham, Mass.) according to the manufacturer's instructions. The cDNA was synthesized using ISCRIPT™ cDNA synthesis kit (BIO-RAD®). qPCR analysis was performed using Power SYBR™ Green PCR Master Mix (THERMO FISHER SCIENTIFIC®) in the APPLIED BIOSYSTEMS® QUANTSTUDIO™ 3 Real-Time PCR System (THERMO FISHER SCIENTIFIC®). The primers used were as follows: for IL-1beta, 5′-[…]-3′ (forward; SEQ ID NO: 1) and 5′-[…]-3′ (reverse; SEQ ID NO: 2); for MCP-1, 5′-[…]-3′ (forward; SEQ ID NO: 3) and 5′-[…]-3′ (reverse; SEQ ID NO: 4); for β-actin, 5′-ACTCTTCCAGCCTTCCTTC-3′ (forward; SEQ ID NO: 5) and 5′-[…]-3′ (reverse; SEQ ID NO: 6). The threshold cycle (Ct) for target was subtracted from Ct for β-actin to give ΔCt. Results are expressed as 2AC.
# CYP-treated rats = assay: Abdominal mechanical pain threshold (Von Frey) in CYP cystitis model; conditions: CYP (75 mg/kg i.p.) female Sprague Dawley rats; oral 8-AG 5 mg/kg for 1 week prior to CYP
# Procedure: as §2
# Determination of mechanical pain threshold: Lower abdominal pain was evaluated using a mechanical hyperalgesia and allodynia test (Larid et al., Pain, 92:335-342, 2001; Minnet et al., PLoS One, 9:e104458, 2014). Briefly, animals were placed in individual chambers with a wire mesh floor and allowed to acclimate. This Von Frey test was performed in the lower abdomen and consists of delivering a constant pre-determined force with one of a series of Von Frey monofilaments (from 0.08 to 19.6 mN; Stoelting Co., Wood Dale, Ill., USA). Filaments were applied perpendicularly with enough strength to cause the monofilament to slightly bend. Each monofilament was tested five times, 5 s interval between each application. […]
# [1] = aged Fisher 344 rats, 8-AG 5 mg kg/day via drinking water, 1 month
# [2] = aged rats, oral 8-AG 5 mg/kg/day, 6 weeks
compound,measurement,setting,value
"Nc1nc2[nH]c(N)nc2c(=O)[nH]1 [8-AG, 8-Aminoguanine]",detrusor smooth muscle morphology (separation and degeneration of cells),bladder smooth muscle; [1],restored to a younger state; also recorded: restored to levels similar to the younger state
same,swelling and disruption of smooth muscle mitochondria,bladder smooth muscle; [1],restored to a younger state; also recorded: restored to levels similar to the younger state
same,bladder smooth muscle mitochondrial abnormalities,"bladder smooth muscle; aged rats, intravesical 100 μM 8-AG plus 10 μM DEA-NONOate, daily infusion 3-6 weeks",normalized; also recorded: restored
same,detrusor smooth muscle morphology (structural anomalies),bladder smooth muscle; [2],reversed; also recorded: restored to a younger state
same,swelling and disruption of smooth muscle mitochondria,bladder smooth muscle; [2],reversed; also recorded: restored to a younger state
same,IL-1beta mRNA expression in bladder,IL-1beta,suppressed; also recorded: near the detection limit; also recorded: nearly abolished
same,abdominal mechanical pain threshold,CYP-treated rats,returned to near control levels
